Patent US20110039762A1, “TARGETED ANTIMICROBIAL MOIETIES” (C3 JIAN, INC., priority 2009, published 2011)
“Also recorded” adds a separate entry of the source.

Legend:
E. faecalis = experiment: Kill or inhibit growth/proliferation; morphology, biofilm and growth disruption (Tables 5, 6); type: cell-based, Enterococcus faecalis; parameters: key: A: Peptide aggregates; B: Less hyphal formation; Clumps; Diffuse clumps and small polyps; F: Diffuse growth; H: Thin; I: Growth inhibition; Microcolony formation; Rippled; Small polyps; Thick; W: Halo formation on top, microlonies on bottom; further: test concentration or dose not given here
MRSA = experiment: as above; type: cell-based, Methicillin-resistant Staphylococcus aureus; parameters: key: A: Peptide aggregates; B: Less hyphal formation; Clumps; Diffuse clumps and small polyps; F: Diffuse growth; H: Thin; I: Growth inhibition; Microcolony formation; Rippled; Small polyps; Thick; W: Halo formation on top, microlonies on bottom
S. epidermidis = experiment: as above; type: cell-based, Staphylococcus epidermidis; parameters: key: A: Peptide aggregates; B: Less hyphal formation; Clumps; Diffuse clumps and small polyps; F: Diffuse growth; H: Thin; I: Growth inhibition; Microcolony formation; Rippled; Small polyps; Thick; W: Halo formation on top, microlonies on bottom
S. pneumoniae = experiment: as above; type: cell-based, Streptococcus pneumoniae; parameters: key: A: Peptide aggregates; B: Less hyphal formation; Clumps; Diffuse clumps and small polyps; F: Diffuse growth; H: Thin; I: Growth inhibition; Microcolony formation; Rippled; Small polyps; Thick; W: Halo formation on top, microlonies on bottom; further: test concentration or dose not given here
E. coli = experiment: as above; type: cell-based, Escherichia coli; parameters: key: A: Peptide aggregates; B: Less hyphal formation; Clumps; Diffuse clumps and small polyps; F: Diffuse growth; H: Thin; I: Growth inhibition; Microcolony formation; Rippled; Small polyps; Thick; W: Halo formation on top, microlonies on bottom; further: test concentration or dose not given here
[1] = system: microorganisms (e.g., bacteria, yeasts, fungi); experiment: Targeting peptide binding to target microorganisms (Table 3); conditions: microorganism(s) the targeting peptide binds, preferably 1x PBS
microorganisms = experiment: Peptides having multiple activities (targeting/binding, antimicrobial, growth or phenotype altering)
Text: In certain embodiments, peptides described herein can have multiple activities. Thus for example, a peptide can have both binding/targeting activity and antimicrobial activity. Such peptides can be used, e.g., in a chimeric construct, for any or all of these properties. Thus, for example, a peptide designated “B” in Table 8 can be used as a targeting peptide. If it is also designated G or M it can also be used for antimicrobial activity.

[2] = peptide binding conducted in aqueous buffers varied by peptide solubility
Wherever Organism, effect is given: test concentration or dose not given here.

Substance	Organism, effect (E. faecalis)	Organism, effect (MRSA)	Organism, effect (S. epidermidis)	Organism, effect (S. pneumoniae)	Organism, effect (E. coli)	Target(s) ([1]; binding in aqueous buffers depending on peptide solubility)	Activities (microorganisms)	Target(s) [1, 2]
KTPNDKIHKTIIIKHIIL [PF-533]	E. faecalis (C)	MRSA (H)	S. epidermidis (H)	S. pneumoniae (C)	E. coli (R)			
PF-381: peptide having multiple activities (chain 1 QGANPCQQVGFTVNDPDCRLAKTV; chain 2 QGANPCQQVGFTVNDPDCRLAKTV; Peptide with targeting and/or antimicrobial activity)	E. faecalis (C)	MRSA (C)	S. epidermidis (C)		E. coli (R)	E. coli; also recorded: P. aeruginosa; also recorded: C. jejuni	G B	
PF-396: peptide having multiple activities (LIYTILASLGVLTVLQAILGREPKAVKA; Peptide with targeting and/or antimicrobial activity)	E. faecalis (C)	MRSA (C)	S. epidermidis (S)		E. coli (C)		G B	S. epidermidis; also recorded: E. coli; also recorded: P. aeruginosa; also recorded: C. albicans; also recorded: E. faecalis; also recorded: C. jeikeium
PF-398: peptide having multiple activities (ILVVLAGILLVVLSYVGISKFKMNC; Peptide with targeting and/or antimicrobial activity)	E. faecalis (C)	MRSA (C)	S. epidermidis (C)		E. coli (C)		G B	
PF-399: peptide having multiple activities (FPIISALLGAIICIAIYSFIVNRKA; Peptide with targeting and/or antimicrobial activity)	E. faecalis (C)	MRSA (C)	S. epidermidis (C)		E. coli (C)		G B	
PF-401: peptide having multiple activities (YWLSRVTTGHSFAFEKPVPLSLTIK; Peptide with targeting and/or antimicrobial activity)	E. faecalis (C)	MRSA (C)	S. epidermidis (C)		E. coli (R)		G B	S. epidermidis and E. coli and P. aeruginosa and MRSA and E. faecalis and C. jejuni
PF-410: peptide having multiple activities (FALELIALCRNLFIVYFP; Peptide with targeting and/or antimicrobial activity)	E. faecalis (C)	MRSA (M)	S. epidermidis (C)		E. coli (S)		G B	
PF-439: peptide having multiple activities (chain 1 RVLVLKKFHGIMDGNRNVAVFFVGQ; chain 2 RVLVLKKFHGIMDGNRNVAVFFVGQ; Peptide with targeting and/or antimicrobial activity)	E. faecalis (C)	MRSA (M)	S. epidermidis (C)	S. pneumoniae (R)	E. coli (R)		G B	
PF-440: peptide having multiple activities (chain 1 MFIISPDLFNIAVILYILFFIHDILLLILS; chain 2 MFIISPDLFNIAVILYILFFIHDILLLILS; Peptide with targeting and/or antimicrobial activity)	E. faecalis (C)	MRSA (C)	S. epidermidis (C)	S. pneumoniae (R)	E. coli (R)		G B	
PF-444: peptide having multiple activities (chain 1 MAAKLWEEGKMVYASSASMTKRLKLAMSKV; chain 2 MAAKLWEEGKMVYASSASMTKRLKLAMSKV; Peptide with targeting and/or antimicrobial activity)	E. faecalis (C)	MRSA (C)	S. epidermidis (C)	S. pneumoniae (R)	E. coli (R)		G B	M. luteus; also recorded: C. albicans; also recorded: S. pneumoniae; also recorded: C. jeikeium
PF-451: peptide having multiple activities (chain 1 MVNYIIGSYMLYREQNNNEALRKFDITLAM; chain 2 MVNYIIGSYMLYREQNNNEALRKFDITLAM; Peptide with targeting and/or antimicrobial activity)	E. faecalis (C)	MRSA (C)	S. epidermidis (C)	S. pneumoniae (C)	E. coli (R)		G B	
PF-452: peptide having multiple activities (chain 1 MNNWIKVAQISVTVINEVIDIMKEKQNGGK; chain 2 MNNWIKVAQISVTVINEVIDIMKEKQNGGK; Peptide with targeting and/or antimicrobial activity)	E. faecalis (C)	MRSA (C)	S. epidermidis (C)	S. pneumoniae (R)	E. coli (C)		G B	M. luteus; also recorded: P. aeruginosa; also recorded: C. albicans; also recorded: S. pneumoniae; also recorded: E. faecalis; also recorded: C. jeikeium; also recorded: M. smegmatis
PF-460: peptide having multiple activities (chain 1 MEHVLPFQNTPPNIVIIYKDFTHLKSITFS; chain 2 MEHVLPFQNTPPNIVIIYKDFTHLKSITFS; Peptide with targeting and/or antimicrobial activity)	E. faecalis (C)	MRSA (C)	S. epidermidis (C)	S. pneumoniae (R)	E. coli (H)		G B	
PF-518: peptide having multiple activities (chain 1 SFYSKYSRYIDNLAGAIFLFF; chain 2 SFYSKYSRYIDNLAGAIFLFF; Peptide with targeting and/or antimicrobial activity)	E. faecalis (C)	MRSA (C)	S. epidermidis (C)	S. pneumoniae (M)	E. coli (R)		G B	S. epidermidis and E. coli and P. aeruginosa and C. albicans and MRSA and S. pneumoniae and E. faecalis
PF-534 (KYFHLFYHNIIHYSKQHLSLKVDFKN; Peptide with targeting and/or antimicrobial activity)	E. faecalis (C)	MRSA (C)	S. epidermidis (C)	S. pneumoniae (R)	E. coli (R)			
